Experiment [1] has as its target T1, BACE1 (Homo sapiens, UniProt P56817).
T1 construct: endogenous in cells; host or cells: HEK293 APP cells
Briefly: Cellular Aβ-lowering assay (Abeta 40 AlphaLISA, HEK293 APP cells). In kind it is cell-based. As to conditions: 18-20 hrs incubation, Aβ40 in culture supernatant, read-out: BACE1 cell act. Aβ40 IC50. The essentials:
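APP-expressing HEK293 cells exposed to compounds for 18-20 h at 37° C. (1% DMSO final). Secreted Aβ1-40 in supernatant measured by AlphaLISA (615 nm emission), expressed as percent of DMSO-only signal, and IC50 fitted.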
On the technique in general: In Alpha technology, singlet oxygen from a donor bead excites a nearby acceptor bead.

Experiment [2] has as its system Aβ40 in brain of wild-type mice. Briefly: Lowering of Aβ40 in brain of wild-type mice. It is filed as in vivo. To be noted: Mus musculus, po; female C57Bl/6J mice, 30 mg/kg per os, 4 h; brain Aβ40 related to the value in the vehicle group; read-out: Aβ40 (wt mice, brain). Here is the method:
Lowering of Aβ40 in Brain of Wild-Type Mice:
Animals and Housing Conditions.
Animals were maintained in a 12/12 h light/dark cycle, with lights starting at 6 a.m., and experiments were conducted during the light phase. Animal housing and experimental procedures were in line with ethical and legal guidelines and were authorized by local veterinary authorities.
Experiment. Female C57Bl/6J mice were treated with a dose of 30 mg/kg of the compounds, 3-4 animals per treatment group. The test compound was dissolved in 5% EtOH, 10% Solutol, and was applied per os at 10 mL/kg. After 4 h, the animals were sacrificed and brain and plasma were collected. The brain was cut into halves and immediately frozen on dry ice. Brain was used for measurement of Aβ40 and plasma was used for determination of compound exposure. […] Brain tissue was homogenized in 2% DEA buffer in a Roche MagnaLyser (20″, 4000 rpm) and subsequently centrifuged for 1 h at 100000 g. DEA was reduced to 0.2% in 50 mM NaCl and one-half of the DEA lysate was passed over an Oasis Solid phase extraction plate (Waters; cat. no. 186000679), which had been activated with MeOH and equilibrated in dH2O (1 mL each). After washes in 10% and 30% MeOH (1 mL each), the Aβ-peptides were eluted in 0.8 mL of 2% NH4OH in 90% MeOH. The eluate was dried over a N2 flow, and the dried sample was reconstituted in 30 μL of AlphaLISA assay buffer. Aβ40 was determined by an AlphaLISA assay (Perkin-Elmer). In a white 96-well, half area microplate (Perkin-Elmer cat. no. 6005561), 20 μL of the reconstituted sample were mixed with 5 μL of biotinylated BAP-24 (specific for C-terminus of Aβ40) (Brockhaus, M.; Grunberg, J.; Rohrig, S.; Loetscher, H.; Wittenburg, N.; Baumeister, R.; Jacobsen, H.; Haass, C. Caspasemediated cleavage is not required for the activity of presenilins in amyloidogenesis and NOTCH signaling. NeuroReport 1998, 9, 1481-1486.) stock=4.4 mg/mL, f.c.5.5 μg/mL), and 5 μL 252Q6 acceptor beads (252Q6 antibody, Invitrogen AMB0062) had been previously conjugated with AlphaLISA Acceptor beads (Perkin-Elmer cat. no. 6772002); final dilution 1:500). The mix was incubated for 1 h at RT in the dark. Then 20 μL of Streptavin-coated Donor Beads (Perkin-Elmer cat. no. 6760002, final dilution 1:125) were added and this final mix was incubated in the dark for another 30 min at RT before RFU was measured in an AlphaScreen Reader (Perkin-Elmer Envision 2104). The value obtained for Aβ40 in the treated animals was related to the value in the vehicle group and is given in %. Alternatively a commercial ELISA was used for Aβ40 determination (Wako ELISA: (“Human/Rat β Amyloid (40) ELISA kit Wako II”; cat nr. 294-64701) following the manufacture's instruction. Also here the Aβ-lowering efficacy was calculated as percentage of the vehicle group.

Broadly, the IC50 is the concentration that gives 50% inhibition.

T1 sequence (P56817 46-501): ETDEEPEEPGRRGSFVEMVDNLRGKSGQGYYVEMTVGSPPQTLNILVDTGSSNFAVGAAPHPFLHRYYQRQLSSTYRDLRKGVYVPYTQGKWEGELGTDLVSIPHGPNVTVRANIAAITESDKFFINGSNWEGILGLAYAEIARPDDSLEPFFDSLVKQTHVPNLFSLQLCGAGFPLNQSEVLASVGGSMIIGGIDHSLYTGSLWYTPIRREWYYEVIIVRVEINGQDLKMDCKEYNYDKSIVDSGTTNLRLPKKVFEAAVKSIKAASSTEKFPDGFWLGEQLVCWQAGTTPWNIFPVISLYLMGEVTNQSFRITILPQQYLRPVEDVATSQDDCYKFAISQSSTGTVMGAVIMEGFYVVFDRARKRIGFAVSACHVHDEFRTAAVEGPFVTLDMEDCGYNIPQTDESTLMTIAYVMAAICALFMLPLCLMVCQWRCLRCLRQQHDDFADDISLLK

Regarding `CC1(C)C(N)=N[C@](C)(c2nc(NC(=O)c3ncc(OC(F)F)cc3Cl)ccc2F)[C@@H]2CCN=[S@@]21=O` [Example 28AB, N-(6-((3aS,4R,8R)-6-amino-4,7,7-trimethyl-8-oxido-3,3a,4,7-tetrahydro-2H-isothiazolo[1,5-a][1,4]thiazin-4-yl)-5-fluoropyridin-2-yl)-3-chloro-5-(difluoromethoxy)picolinamide], the IC50 in experiment [1] was 2.8 nM. Besides, in experiment [2], the response vs control in vivo at 30 mg/kg is 100%.
On the same counts, the results for `CC1(C)C(N)=N[C@](C)(c2nc(NC(=O)c3ncc(C#N)cc3Cl)ccc2F)[C@H]2CC3(CC3)CN=[S@@]21=O` [Example 49AA, N-(6-((4aR,5R,9R)-7-amino-5,8,8-trimethyl-9-oxido-4,4a,5,8-tetrahydro-2H-spiro[[1,4]-thiazino[2,1-f][1,2]thiazine-3,1′-cyclopropan]-5-yl)-5-fluoropyridin-2-yl)-3-chloro-5-cyanopicolinamide] are 0.1 nM and 106%.
On the same counts, the results for `CC1(C)C(N)=N[C@](C)(c2nc(NC(=O)c3ccc(OCC(F)(F)C(F)F)cn3)ccc2F)[C@H]2CCCN=[S@@]21=O` [Example 8AA, N-(6-((4aR,5R,9R)-7-amino-5,8,8-trimethyl-9-oxido-2,3,4,4a,5,8-hexahydro-[1,4]thiazino[2,1-f][1,2]thiazin-5-yl)-5-fluoropyridin-2-yl)-5-(2,2,3,3-tetrafluoropropoxy)picolinamide] are 35.4 nM and 61%.
For `CC1(C)C(N)=N[C@](C)(c2nc(NC(=O)c3ncc(Cl)cc3Cl)ccc2F)[C@H]2CC(F)(F)CN=[S@@]21=O` [Example 40AA, N-(6-((4aR,5R,9R)-7-amino-3,3-difluoro-5,8,8-trimethyl-9-oxido-2,3,4,4a,5,8-hexahydro-[1,4]thiazino[2,1-f][1,2]thiazin-5-yl)-5-fluoropyridin-2-yl)-3,5-dichloropicolinamide], in that order: 4.9 nM and 77%.
Consider `COc1cnc(C(=O)Nc2ccc(F)c([C@@]3(C)N=C(N)C(C)(C)[S@@]4(=O)=NCCC[C@@H]34)n2)cn1` [Example 2AB, N-(6-((4aS,5R,9R)-7-amino-5,8,8-trimethyl-9-oxido-2,3,4,4a,5,8-hexahydro-[1,4]thiazino[2,1-f][1,2]thiazin-5-yl)-5-fluoropyridin-2-yl)-5-methoxypyrazine-2-carboxamide], for which, in experiment [1], the half-maximal inhibitory concentration (IC50) was found to be 18.7 nM. In addition, in experiment [2], the response vs control in vivo at 30 mg/kg is 92%.
On the same counts, the results for `Cc1cc(C#N)cnc1C(=O)Nc1ccc(F)c([C@@]2(C)N=C(N)C(C)(C)[S@]3(=O)=NCCC[C@H]23)n1` [Example 1BA, N-(6-((4aR,5R,9S)-7-amino-5,8,8-trimethyl-9-oxido-2,3,4,4a,5,8-hexahydro-[1,4]thiazino[2,1-f][1,2]thiazin-5-yl)-5-fluoropyridin-2-yl)-5-cyano-3-methylpicolinamide] are 0.5 nM and 95%.
On the same counts, the results for `CC1(C)C(N)=N[C@](C)(c2nc(NC(=O)c3ccc(F)cn3)ccc2F)[C@H]2CC(F)(F)CN=[S@@]21=O` [Example 33AA, N-(6-((4aR,5R,9R)-7-amino-3,3-difluoro-5,8,8-trimethyl-9-oxido-2,3,4,4a,5,8-hexahydro-[1,4]thiazino[2,1-f][1,2]thiazin-5-yl)-5-fluoropyridin-2-yl)-5-fluoropicolinamide] are 90 nM and 83%.
On the same counts, the results for `CC1(C)C(N)=N[C@](C)(c2nc(NC(=O)c3ccc(Cl)cn3)ccc2F)[C@H]2CC(F)(F)CN=[S@@]21=O` [Example 43AA, N-(6-((4aR,5R,9R)-7-amino-3,3-difluoro-5,8,8-trimethyl-9-oxido-2,3,4,4a,5,8-hexahydro-[1,4]thiazino[2,1-f][1,2]thiazin-5-yl)-5-fluoropyridin-2-yl)-5-chloropicolinamide] are 56 nM and 80%.
With `CC1(C)C(N)=N[C@](C)(c2nc(NC(=O)c3ncc(F)cc3Cl)ccc2F)[C@H]2CC(F)(F)CN=[S@@]21=O` [Example 41AA, N-(6-((4aR,5R,9R)-7-amino-3,3-difluoro-5,8,8-trimethyl-9-oxido-2,3,4,4a,5,8-hexahydro-[1,4]thiazino[2,1-f][1,2]thiazin-5-yl)-5-fluoropyridin-2-yl)-3-chloro-5-fluoropicolinamide], the IC50 in experiment [1] was 30.4 nM. Also, the response vs control in vivo at 30 mg/kg in experiment [2] was 78%.
Take `CC1(C)C(N)=N[C@](C)(c2nc(NC(=O)c3ncc(OC(F)F)cc3Cl)ccc2F)[C@H]2CC(F)(F)CN=[S@@]21=O` [Example 45AA, N-(6-((4aR,5R,9R)-7-amino-3,3-difluoro-5,8,8-trimethyl-9-oxido-2,3,4,4a,5,8-hexahydro-[1,4]thiazino[2,1-f][1,2]thiazin-5-yl)-5-fluoropyridin-2-yl)-3-chloro-5-(difluoromethoxy)-picolinamide]: in experiment [1], the concentration for half-maximal inhibition (IC50) was 26.6 nM. Moreover, the response vs control in vivo at 30 mg/kg in experiment [2] was 85%.
On the same counts, the results for `Cc1cc(F)cnc1C(=O)Nc1ccc(F)c([C@@]2(C)N=C(N)C(C)(C)[S@@]3(=O)=NCC[C@@H]23)n1` [Example 10AB, N-(6-((3aS,4R,8R)-6-amino-4,7,7-trimethyl-8-oxido-3,3a,4,7-tetrahydro-2H-isothiazolo[1,5-a][1,4]thiazin-4-yl)-5-fluoropyridin-2-yl)-5-fluoro-3-methylpicolinamide] are 10 nM and 71%.
For `Cc1cc(C#N)cnc1C(=O)Nc1ccc(F)c([C@@]2(C)N=C(N)C(C)(C)[S@]3(=O)=NCC[C@H]23)n1` [Example 9BA, N-(6-((3aR,4R,8S)-6-amino-4,7,7-trimethyl-8-oxido-3,3a,4,7-tetrahydro-2H-isothiazolo[1,5-a][1,4]thiazin-4-yl)-5-fluoropyridin-2-yl)-5-cyano-3-methylpicolinamide], in that order: 14.9 nM and 86%.
For `CC1(C)C(N)=N[C@](C)(c2nc(NC(=O)c3ccc(OC(F)F)cn3)ccc2F)[C@H]2CCCN=[S@@]21=O` [Example 7AA, N-(6-((4aR,5R,9R)-7-amino-5,8,8-trimethyl-9-oxido-2,3,4,4a,5,8-hexahydro-[1,4]thiazino[2,1-f][1,2]thiazin-5-yl)-5-fluoropyridin-2-yl)-5-(difluoromethoxy)picolinamide], in that order: 2.7 nM and 65%.

These data come from patent US9540397B2, “BACE1 inhibitors” (Hoffmann-La Roche Inc., priority 2014, dated 2017).
